Results from ChEMBL document CHEMBL1130991, “Synthesis and antibacterial activity of [6,5,5] and [6,6,5] tricyclic fused oxazolidinones” (Bioorg Med Chem Lett, 1998).
Values after ≈ are worked out from the molar mass of the structure shown.

Assays:
[1] = tested on: Bacteroides fragilis; experiment: Antibacterial activity against Bacteroides fragilis UC12199; format: functional
[2] = tested on: Enterococcus faecalis; experiment: Antibacterial activity against Enterococcus faecalis UC9217; format: functional
[3] = tested on: Mus musculus; experiment: (§1) Effective dose required to inhibit Staphylococcus aureus UC9213 in mice subjected to a lethal systemic infection (when administered orally); format: functional, organism-based
[4] = tested on: Staphylococcus epidermidis; experiment: Antibacterial activity against Staphylococcus epidermidis UC30031UC; format: functional
[5] = tested on: Mus musculus; experiment: as §1; format: functional; details: po
[6] = tested on: Streptococcus pneumoniae; experiment: Antibacterial activity against Streptococcus pneumoniae UC9912; format: functional
[7] = tested on: Staphylococcus aureus; experiment: Antibacterial activity against Staphylococcus aureus UC12673; format: functional
[8] = tested on: Staphylococcus aureus; experiment: Antibacterial activity against Staphylococcus aureus UC9213; format: functional
[9] = tested on: Bacteroides fragilis; experiment: Compound was evaluated for antibacterial activity against Bacteroides fragilis UC12199 UC (Upjohn Culture); format: functional
[10] = tested on: Staphylococcus aureus; experiment: as §1; format: functional; details: po
[11] = tested on: Staphylococcus aureus; experiment: Effective dose required to inhibit Staphylococcus aureus UC9271 in mice subjected to a lethal systemic infection (when administered orally); format: functional; details: po
[12] = tested on: Mus musculus; experiment: Compound was evaluated for antibacterial activity against Staphylococcus aureus UC9213 ((methicillin susceptible) in mice administered orally; format: functional; details: po

Row | SMILES | MIC [1] [µg/mL] | MIC [2] [µg/mL] | EC50 [3] [mg/kg] | MIC [4] [µg/mL] | ED50 [5] [mg/kg] | MIC [6] [µg/mL] | MIC [7] [µg/mL] | MIC [8] [µg/mL] | MIC [9] [µg/mL] | ED50 [10] [mg/kg] | ED50 [11] [mg/kg] | ED50 [12] [mg/kg]
1 | CC(=O)NC[C@@H]1OC(=O)N2c3ccc(-c4ccccc4)cc3C[C@@H]12 | 32 (≈ 99.3 µM) | 4 (≈ 12.4 µM) | > 25 | 2 (≈ 6.2 µM) |  |  |  |  |  |  |  | 
2 | CN[C@H](CC(C)C)C(=O)N[C@H]1C(=O)N[C@@H](CC(N)=O)C(=O)N[C@H]2C(=O)N[C@H]3C(=O)N[C@H](C(=O)N[C@H](C(=O)O)c4cc(O)cc(O)c4-c4cc3ccc4O)[C@H](O)c3ccc(c(Cl)c3)Oc3cc2cc(c3O[C@@H]2O[C@H](CO)[C@@H](O)[C@H](O)[C@H]2O[C@H]2C[C@](C)(N)[C@H](O)[C@H](C)O2)Oc2ccc(cc2Cl)[C@H]1O [VANCOMYCIN] | > 16 | 4 (≈ 2.76 µM) |  | 0.5 (≈ 0.345 µM) | 1.1 | 0.5 (≈ 0.345 µM) |  |  |  |  |  | 
3 | CC(=O)NC[C@@H]1OC(=O)N2c3ccc(S(=O)(=O)Nc4ccccc4)cc3C[C@@H]12 | > 32 | > 64 |  | > 64 |  | > 64 | > 64 | > 64 |  |  |  | 
4 | CC(=O)NC[C@H]1CN(c2ccc(N3CCOCC3)cc2)C(=O)O1 | 4 (≈ 12.5 µM) | 4 (≈ 12.5 µM) |  | 2 (≈ 6.26 µM) |  | 1 (≈ 3.13 µM) | 4 (≈ 12.5 µM) | 4 (≈ 12.5 µM) |  |  |  | 
5 | CC(=O)NC[C@@H]1OC(=O)N2c3ccccc3C[C@H]12 |  | > 32 |  | > 32 |  | > 32 | > 32 | > 32 | > 32 |  |  | 
6 | CC(=O)NC[C@@H]1OC(=O)N2c3ccc(S(=O)(=O)N(C)C)cc3C[C@@H]12 | > 32 | > 64 |  | 64 (≈ 181 µM) |  | 64 (≈ 181 µM) | 64 (≈ 181 µM) | 64 (≈ 181 µM) |  |  |  | 
7 | CC(=O)NC[C@@H]1OC(=O)N2c3ccc(S(=O)(=O)NCc4ccccc4)cc3C[C@@H]12 | > 32 | > 64 |  | > 64 |  | > 64 | > 64 | > 64 |  |  |  | 
8 | CC(=O)NC[C@@H]1OC(=O)N2c3ccc(S(=O)(=O)N4CCCCC4)cc3C[C@@H]12 | > 32 | > 64 |  | > 64 |  | > 64 | > 64 | > 64 |  |  |  | 
9 | CC(=O)NC[C@@H]1OC(=O)N2c3ccc(-c4cncnc4)cc3C[C@@H]12 | 8 (≈ 24.7 µM) | 4 (≈ 12.3 µM) |  | 4 (≈ 12.3 µM) | 11.4 |  | 4 (≈ 12.3 µM) | 8 (≈ 24.7 µM) |  |  |  | 
10 | CC(=O)NC[C@@H]1OC(=O)N2c3ccc(C(C)=O)cc3C[C@@H]12 |  | 16 (≈ 55.5 µM) |  | 8 (≈ 27.7 µM) | 39.5 |  |  | 8 (≈ 27.7 µM) |  |  |  | 
11 | CC(=O)NC[C@@H]1OC(=O)N2c3ccccc3C[C@@H]12 | > 32 | > 32 |  | > 32 |  | > 32 | > 32 | > 32 |  |  |  | 
12 | CC(=O)NC[C@@H]1OC(=O)N2c3ccc(-c4ccncc4)cc3C[C@@H]12 | 8 (≈ 24.7 µM) | 2 (≈ 6.19 µM) |  |  |  |  |  |  |  | 6.1 | 16.5 | 
13 | CC(=O)NC[C@@H]1OC(=O)N2c3ccc(C(C)=O)cc3C[C@H]12 | > 16 | > 16 |  | > 16 |  | > 16 | > 16 | > 16 |  |  |  | 
14 | CC(=O)NC[C@@H]1OC(=O)N2c3ccccc3CC[C@@H]12 | > 32 | > 64 |  | > 64 |  | > 64 | > 64 | > 64 |  |  |  | 
15 | CC(=O)NC[C@@H]1OC(=O)N2c3ccc(-c4cccnc4)cc3CC[C@@H]12 | > 32 | 32 (≈ 94.8 µM) |  | 16 (≈ 47.4 µM) |  | 16 (≈ 47.4 µM) | 16 (≈ 47.4 µM) | 32 (≈ 94.8 µM) |  |  |  | 
16 | CC(=O)NC[C@@H]1OC(=O)N2c3ccc(-c4ccc(C#N)cc4)cc3C[C@@H]12 | 32 (≈ 92.1 µM) | 2 (≈ 5.76 µM) |  | 2 (≈ 5.76 µM) | 17.1 | 2 (≈ 5.76 µM) | 4 (≈ 11.5 µM) | 4 (≈ 11.5 µM) |  |  |  | 

Row | SMILES | MIC [1] [µg/mL] | MIC [2] [µg/mL] | EC50 [3] [mg/kg] | MIC [4] [µg/mL] | ED50 [5] [mg/kg] | MIC [6] [µg/mL] | MIC [7] [µg/mL] | MIC [8] [µg/mL] | MIC [9] [µg/mL] | ED50 [10] [mg/kg] | ED50 [11] [mg/kg] | ED50 [12] [mg/kg]
17 | CC(=O)NC[C@@H]1OC(=O)N2c3ccc(-c4cccnc4)cc3CC[C@H]12 | > 32 | > 64 |  | > 64 |  | > 64 | > 64 | > 64 |  |  |  | 
18 | CC(=O)NC[C@@H]1OC(=O)N2c3ccc(S(N)(=O)=O)cc3C[C@@H]12 | > 32 | > 64 |  | > 64 |  | > 64 | > 64 | > 64 |  |  |  | 
19 | CC(=O)NC[C@@H]1OC(=O)N2c3ccc(S(=O)(=O)N(C)CCCO)cc3C[C@@H]12 | > 32 | > 64 |  | > 64 |  | > 64 | > 64 | > 64 |  |  |  | 
20 | CC(=O)NC[C@@H]1OC(=O)N2c3ccccc3CC[C@H]12 | > 32 | > 64 |  | > 64 |  | > 64 | > 64 | > 64 |  |  |  | 
21 | CC(=O)NC[C@@H]1OC(=O)N2c3ccc(-c4cccnc4)cc3C[C@@H]12 | 2 (≈ 6.19 µM) | 2 (≈ 6.19 µM) |  | 2 (≈ 6.19 µM) | 9.4 |  | 2 (≈ 6.19 µM) | 4 (≈ 12.4 µM) |  |  | 4.4 | 
22 | CC(=O)NC[C@@H]1OC(=O)N2c3ccc(C(C)=O)cc3CC[C@H]12 | > 16 | > 16 |  | > 16 |  | > 16 | > 16 | > 16 |  |  |  | 
23 | CC(=O)NC[C@@H]1OC(=O)N2c3ccc(S(C)(=O)=O)cc3C[C@@H]12 | > 32 | 64 (≈ 197 µM) |  | 64 (≈ 197 µM) |  | 16 (≈ 49.3 µM) | 32 (≈ 98.7 µM) | 64 (≈ 197 µM) |  |  |  | 
24 | CC(=O)NC[C@@H]1OC(=O)N2c3ccc(-c4cccnc4)cc3C[C@@H]12.Cl | 4 | 2 |  | 1 | 6 | 0.5 | 2 | 2 |  |  |  | 
25 | CC(=O)NC[C@@H]1OC(=O)N2c3ccc(C(C)=O)cc3CC[C@@H]12 | > 16 | > 16 |  | > 16 |  | > 16 | > 16 | > 16 |  |  |  | 
26 | CC(=O)NCC1OC(=O)N2c3ccc(C(C)=O)cc3CC12 (single isomer, unassigned; (+)) | 4 (≈ 13.9 µM) | 4 (≈ 13.9 µM) |  | 2 (≈ 6.94 µM) |  | 4 (≈ 13.9 µM) | 4 (≈ 13.9 µM) | 4 (≈ 13.9 µM) |  |  |  | 
27 | CCNS(=O)(=O)c1ccc2c(c1)C[C@H]1[C@H](CNC(C)=O)OC(=O)N21 | > 32 | > 64 |  | > 64 |  | > 64 | > 64 | > 64 |  |  |  | 
28 | CC(=O)NC[C@@H]1OC(=O)N2c3ccc(S(=O)(=O)N4CCOCC4)cc3C[C@@H]12 | > 32 | > 64 |  | > 64 |  | > 64 | > 64 | > 64 |  |  |  | 
29 | CC(=O)NC[C@@H]1OC(=O)N2c3ccc(S(=O)(=O)NC4CCCC4)cc3C[C@@H]12 | > 32 | > 64 |  | > 64 |  | > 64 | > 64 | > 64 |  |  |  | 
30 | CC(=O)NC[C@@H]1OC(=O)N2c3ccc(N4CCOCC4)cc3C[C@@H]12 | > 16 | 128 (≈ 386 µM) |  | 32 (≈ 96.6 µM) |  | 32 (≈ 96.6 µM) | 64 (≈ 193 µM) | 64 (≈ 193 µM) |  |  |  | > 20
31 | CC(=O)NC[C@H]1CN(c2ccc(C(C)=O)cc2)C(=O)O1 (racemic) [DUP-721] | 8 (≈ 29 µM) | 8 (≈ 29 µM) |  | 4 (≈ 14.5 µM) |  | 2 (≈ 7.24 µM) | 4 (≈ 14.5 µM) | 2 (≈ 7.24 µM) |  | 9.4 | 18.1 | 
32 | CC(=O)NC[C@H]1CN(c2ccc(N3CCOCC3)c(F)c2)C(=O)O1 [LINEZOLID] | 4 (≈ 11.9 µM) |  |  | 1 (≈ 2.96 µM) | 2 |  |  |  |  |  |  | 
